Results on 8 molecules are retold here after patent US7514429B2, “Benzoxazinone-derived compounds, their preparation and use as medicaments” (ESTEVE Laboratorios Dr. Esteve S.A., priority 2002, dated 2009).

Where a name gives a salt, the structure may show the parent alone.

In one data set the target is T1, rat Y5 receptor (Rattus norvegicus, UniProt Q63634).
T1 construct: expressed in transfected cells; host or cells: C6 cells
T1 sequence (Q63634 1-445): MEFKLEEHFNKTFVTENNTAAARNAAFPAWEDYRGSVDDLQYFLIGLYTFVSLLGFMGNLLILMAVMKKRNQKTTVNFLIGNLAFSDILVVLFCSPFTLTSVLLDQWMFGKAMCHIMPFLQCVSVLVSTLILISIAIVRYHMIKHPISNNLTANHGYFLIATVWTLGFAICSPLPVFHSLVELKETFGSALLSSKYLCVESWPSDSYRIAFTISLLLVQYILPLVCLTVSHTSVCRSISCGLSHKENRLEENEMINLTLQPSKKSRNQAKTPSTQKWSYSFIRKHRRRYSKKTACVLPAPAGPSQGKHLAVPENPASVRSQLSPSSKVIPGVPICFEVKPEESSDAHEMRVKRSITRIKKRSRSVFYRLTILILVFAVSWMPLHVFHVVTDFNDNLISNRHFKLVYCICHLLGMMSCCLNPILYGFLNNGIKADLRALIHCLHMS
The data set is described as follows: Neuropeptide Y5 receptor binding, Method (II), C6 cells transfected with the rat Y5 receptor. The settings on record: [125I]-PYY, Y5 rat recombinant receptor, cell C6. On the procedure:
Neuropeptide Y5 Receptor Binding Studies:
The methods used for membrane preparation and binding are similar to those described by Y. Hu, B. T. Bloomquist et al. in Y. Hu, B. T. Bloomquist et al., The Journal of Biological Chemistry, 1996, 271, 26315-26319 with modifications. Said literature description is herewith incorporated by reference and forms part of the disclosure. Cells C6 were transfected with the rat Y5 receptor. The cells were grown under standard culture conditions in 150 cm^2 dishes and they were harvested using a rubber scraper and 10 ml PBS. The cells from five dishes were collected and centrifuged 2.500 g for 5 min (4° C). The pellet was washed by resuspending in 3 ml buffer (Tris-HCl 10 mM, pH 7.4), homogenized using a Potter S homogenizer, 10 strokes at 600 rpm and centrifuged 48.000 g for 20 min (4° C.). The pellet was resuspended in 8 ml membrane buffer (Tris-HCl 25 mM, NaCl 120 mM, KCl 5 mM, KH2PO4 1.2 mM, CaCl2 2.5 mM, MgSO4 1.2 mM, BSA 0.15 mg/ml, Bacitracine 0.5 mg/ml, pH 7.4) and rehomogenized using the Potter S, 10 strokes at 600 rpm. The protein concentration in the incubation was 40 μg/ml. The radioligand was [^125I]-PYY (100 pM) in a total incubation volume of 200 μl. Following incubation at 25° C. for 2 h, the reaction was stopped by addition of 5 ml ice-cold buffer (Tris-HCl 25 mM, NaCl 120 mM, KCl 5 mM, KH2PO4 1.2 mM, CaCl2 2.5 mM, MgSO4 1.2 mM, pH 7.4) and rapid filtration in a Harvester Brandell Cell using filters (Schleicher & Schuell G F 3362) pretreated for two hours with 0.5% polyethyleneimine. Filters were washed one time with 5 ml ice-cold buffer. The filters were placed into plastic scintilation vials and 5 ml scintilation cocktail Ecoscint H were added. The quantity of radioactivity present was determined in a Wallac Winspectral 1414 counter. Non specific binding was determined in the presence of 1 μM de pNPY. All binding assays were done in triplicate.

In a further data set the test system is rats. The data set is described as follows: Nocturnal feeding (food intake measurement). The data set is classed as in vivo, rat. The following applies: vs. control group. On the procedure:
Behavioural Models (Food Intake Measurements)
In both test, animals rats (Male W, 200-270 g, obtained from Harlan, S. A) were used. The rats are acclimatized to the animal facility for at least 5 days before being subjected to any experimental procedure. During this period, animals were housed in groups of five in translucid cages and provided with food and water ad libitum. At least 24 hours before the tests, animals are adapted to single-housing conditions.
Food intake is measured in home cages in order to minimize non-specific stress effects on food intake resulting from changes in housing conditions. Food and water is available ad libitum. Immediately before lights turn off, rats are weighed, randomized and dosed (orally or intraperitoneally), either with vehicle or selected benzoxacine-compounds of general formula (I). Thereafter, rats are returned to home cages and food left on top covers is measured. Remaining food and animal's weight is measured next morning.
The above mentioned methods are described in Ants Kask et al., Europan Journal of Pharmacology 414 (2001) 215-224 and Turnbull et al., Diabetes, Vol. 51, August 2002, which are hereby incorporated by reference and form part of the disclosure.

The next data set deals with T2, Neuropeptide Y2 (Rattus norvegicus, UniProt Q9ERC0).
T2 construct: their brains are rapidly removed and the hypoccampus is dissected; from tissue; host or cells: rat hippocampus membranes (male Wistar rats)
T2 sequence (Q9ERC0 1-381): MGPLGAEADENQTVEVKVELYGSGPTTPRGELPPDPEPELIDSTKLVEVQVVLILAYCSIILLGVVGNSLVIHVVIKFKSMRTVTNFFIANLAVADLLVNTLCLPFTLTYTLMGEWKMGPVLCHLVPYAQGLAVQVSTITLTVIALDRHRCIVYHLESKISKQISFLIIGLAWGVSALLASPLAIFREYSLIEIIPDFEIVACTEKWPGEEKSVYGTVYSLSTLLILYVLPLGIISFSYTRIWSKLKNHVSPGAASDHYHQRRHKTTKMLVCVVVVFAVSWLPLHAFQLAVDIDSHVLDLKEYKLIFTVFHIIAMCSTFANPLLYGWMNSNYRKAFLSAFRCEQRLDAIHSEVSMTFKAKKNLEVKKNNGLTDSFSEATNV
The data set is described as follows: Binding to Neuropeptide Y2, Method (III), rat hypoccampus membranes. The following applies: [125I]-PYY(3-36). Here is the method: Binding to Neuropeptide Y2
Said literature description is herewith incorporated by reference and forms part of the disclosure.
Male Wistar rats are sacrificed by decapitation, their brains are rapidly removed and the hypoccampus is dissected. Homogenization is performed in cold conditions in the buffer: 120 mM NaCl, 4.7 mM KCl, 2.2 mM CaCl2, 1.2 mM KH2PO4, 1.2 mM MgSO4, 25 mM NaHCO3, 5.5 mM glucose, pH 7.4, by means of a Ultra-Turrax homogenizer for 15 seconds at 13,500 rpm. The ratio between fresh tissue weight and buffer volume is of ten times. The membrane is centrifuged for 10 min at 48,000 g. The supernatant is discarded and the pellet is washed, resuspended and recentrifuged two more times. The final membrane resuspension is performed in the buffer: 120 mM NaCl, 4.7 mM KCl, 2.2 mM CaCl2, 1.2 mM KH2PO4, 1.2 mM MgSO4, 25 mM NaHCO3, 5.5 mM glucose, 0.1% BSA, 0.05% bacitracin, pH 7.4, at a 90 ml/g ratio of fresh issue. […] Incubation volume: 500 μl. […] The filters are cold-washed three times with three milliliters of the same buffer used in homogenization. […] Non-specific binding is determined in the presence of 1 μM of pNPY (Neuropeptide Y of porcine origin). The assays are performed in triplicate.

Consider `Cc1cccc2c1N(C1CCN(CC(=O)Nc3ccc4c(c3)-c3ccccc3C4=O)CC1)C(=O)OC2` (as salt: HCl) [Example 35, 2-[4-(8-Methyl-2-oxo-4H-benzo[d][1,3]oxazin-1-yl)-piperidin-1-yl]-N-(9-oxo-9H-fluoren-3-yl)-acetamide hydrochloride], for which the melting point (in general, the temperature of the solid-liquid transition) lay in the range of 233 to 236 °C.
Take `Cc1nc2cc(NC(=O)CN3CCC(N4C(=O)OCc5cc(F)ccc54)CC3)ccc2s1` [Example 114, 2-[4-(6-Fluoro-2-oxo-4H-benzo[d][1,3]oxazin-1-yl)-piperidin-1-yl]-N-(2-methyl-benzothiazole-5-yl)-acetamide]: the IC50 (usually the midpoint of a concentration-inhibition curve) on rat Y5 receptor amounted to 40.7 nM.
On to `Cc1cccc2c1N(C1CCN(CC(=O)Nc3ccc4c(c3)-c3ccccc3C4=O)CC1)C(=O)OC2` [Example 35, 2-[4-(8-Methyl-2-oxo-4H-benzo[d][1,3]oxazin-1-yl)-piperidin-1-yl]-N-(9-oxo-9H-fluoren-3-yl)-acetamide hydrochloride], for which, in the data set on rats (20 mg/kg i.p. administration), the “Effect: body weight of treated animals” value is “reduces body weight of” and the “Effect: food intake” value is “Decreases food intake and”.
Consider `COc1ccc2c(c1)COC(=O)N2C1CCN(CC(=O)Nc2ccc3sc(C)nc3c2)CC1` [Example 116, 2-[4-(6-Methoxy-2-oxo-4H-benzo[d][1,3]oxazin-1-yl)-piperidin-1-yl]-N-(2-methyl-benzothiazole-5-yl)-acetamide], for which the IC50 on rat Y5 receptor is 106 nM.
As to `O=C(CN1CCC(N2C(=O)OCc3ccccc32)CC1)Nc1ccc2c(c1)-c1ccccc1C2=O` [Example 3, 2-[4-(2-oxo-4H-benzo[d][1,3]oxazin-1-yl)-piperidin-1-yl]-N-(9-oxo-9H-fluoren-3-yl)-acetamide hydrochloride], the inhibition constant (Ki) (as a rule, the dissociation constant of the complex between target and ligand, obtained from inhibition or displacement) at Neuropeptide Y2 is > 1000 nM.
Take `CCn1c2ccccc2c2cc(NC(=O)CN3CCC(N4C(=O)OCc5ccccc54)CC3)ccc21` [Example 18, N-(9-Ethyl-9H-carbazol-3-yl)-2-[4-(2-oxo-4H-benzo[d][1,3]oxazin-1-yl)-piperidin-1-yl]-acetamide hydrochloride]: in the data set with rats (40 mg/kg i.p. administration), the “Effect: body weight of treated animals” value was “reduces body weight of” and the “Effect: food intake” value was “Decreases food intake and”.
For `COc1cccc2c1COC(=O)N2C1CCN(CC(=O)Nc2ccc3sc4ccccc4c3c2)CC1` [Example 107, N-Dibenzothiophene-2-yl-2-[4-(5-methoxy-2-oxo-4H-benzo[d][1,3]oxazin-1-yl)-piperidin-1-yl]-acetamide], the IC50 at rat Y5 receptor came to 23.5 nM.
With `Cc1ccc2c(c1)COC(=O)N2C1CCN(CC(=O)Nc2ccc3c(c2)-c2ccccc2C3=O)CC1` [Example 20, 2-[4-(6-methyl-2-oxo-4H-benzo[d][1,3]oxazin-1-yl)-piperidin-1-yl]-N-(9-oxo-9H-fluoren-3-yl)-acetamide hydrochloride], the Ki at Neuropeptide Y2 is > 1000 nM. In the data set on rats (40 mg/kg i.p. administration), the “Effect: body weight of treated animals” value is “reduces body weight of” and the “Effect: food intake” value is “Decreases food intake and”.
